Laboratory results reported in the NIST ThermoML archive (doi:10.1021/acs.jced.5b00369).

Test: relative permittivity at zero frequency (dimensionless); xn = mol fraction of the nth substance listed
Conditions: 101 kPa, Liquid, two-terminal dielectric cell

CC[N+](=O)[O-] [nitroethane] + Cc1ccc(C)cc1
298.15 K
Conditions | relative permittivity at zero frequency
x1 = 0.001685 | 2.2782
x1 = 0.009202 | 2.35917
x1 = 0.01833 | 2.45822
x1 = 0.02729 | 2.55599
x1 = 0.03608 | 2.65295
x1 = 0.04032 | 2.69936
x1 = 0.05043 | 2.81296
x1 = 0.05899 | 2.91009
x1 = 0.0674 | 3.00647
x1 = 0.07566 | 3.10223

CC(C)[N+](=O)[O-] [2-nitropropane] + ClC(Cl)(Cl)Cl
298.15 K
Conditions | relative permittivity at zero frequency
x1 = 0.001006 | 2.24531
x1 = 0.002745 | 2.27181
x1 = 0.00569 | 2.31696
x1 = 0.01141 | 2.40482
x1 = 0.01707 | 2.49201
x1 = 0.02266 | 2.57869
x1 = 0.02488 | 2.61322
x1 = 0.02599 | 2.62967
x1 = 0.02803 | 2.6614
x1 = 0.03078 | 2.70432
x1 = 0.03634 | 2.79196
x1 = 0.04183 | 2.87937
x1 = 0.04726 | 2.9666

C[N+](=O)[O-] [nitromethane] + c1ccccc1
Conditions | relative permittivity at zero frequency
298.15 K, x1 = 0.000817 | 2.28834
298.15 K, x1 = 0.001228 | 2.294
298.15 K, x1 = 0.001638 | 2.29956
298.15 K, x1 = 0.002045 | 2.30518
298.15 K, x1 = 0.00245 | 2.31071
298.15 K, x1 = 0.003332 | 2.32281
298.15 K, x1 = 0.003559 | 2.32593
298.15 K, x1 = 0.004459 | 2.33824
298.15 K, x1 = 0.005656 | 2.35464
298.15 K, x1 = 0.006833 | 2.37085
298.15 K, x1 = 0.007322 | 2.37753
298.15 K, x1 = 0.007982 | 2.38639
298.15 K, x1 = 0.01242 | 2.44757
298.15 K, x1 = 0.01595 | 2.49623
298.15 K, x1 = 0.02031 | 2.55663
298.15 K, x1 = 0.02465 | 2.61628
298.15 K, x1 = 0.0332 | 2.7354
298.15 K, x1 = 0.04458 | 2.89495
298.15 K, x1 = 0.05494 | 3.03914
298.15 K, x1 = 0.06641 | 3.20367
298.15 K, x1 = 0.08012 | 3.40373
318.15 K, x1 = 0.000437 | 2.19342
318.15 K, x1 = 0.0008868 | 2.19856
318.15 K, x1 = 0.001333 | 2.20368
318.15 K, x1 = 0.001778 | 2.20876
318.15 K, x1 = 0.002219 | 2.21383
318.15 K, x1 = 0.002658 | 2.2188
318.15 K, x1 = 0.003857 | 2.23245
318.15 K, x1 = 0.004835 | 2.24352
318.15 K, x1 = 0.006131 | 2.25821
318.15 K, x1 = 0.007631 | 2.27516
318.15 K, x1 = 0.009325 | 2.29411
318.15 K, x1 = 0.01132 | 2.31664
318.15 K, x1 = 0.01305 | 2.33622
318.15 K, x1 = 0.0149 | 2.35704
318.15 K, x1 = 0.01628 | 2.37368
318.15 K, x1 = 0.02047 | 2.42114
318.15 K, x1 = 0.02519 | 2.47484
318.15 K, x1 = 0.03005 | 2.53001
318.15 K, x1 = 0.0345 | 2.58032
318.15 K, x1 = 0.04273 | 2.67386
318.15 K, x1 = 0.05416 | 2.80502
318.15 K, x1 = 0.06683 | 2.9527
318.15 K, x1 = 0.07816 | 3.08644
318.15 K, x1 = 0.09171 | 3.24999

CC(C)[N+](=O)[O-] [2-nitropropane] + CC(C)C(C)C
298.15 K
Conditions | relative permittivity at zero frequency
x1 = 0.003786 | 1.92648
x1 = 0.007756 | 1.96704
x1 = 0.01545 | 2.04621
x1 = 0.02302 | 2.12477
x1 = 0.03047 | 2.20279
x1 = 0.03298 | 2.22897
x1 = 0.03446 | 2.24427
x1 = 0.03679 | 2.26913
x1 = 0.04419 | 2.34842
x1 = 0.0515 | 2.42769
x1 = 0.05867 | 2.50669
x1 = 0.06479 | 2.5748
x1 = 0.06604 | 2.58924
x1 = 0.06819 | 2.61329
x1 = 0.07183 | 2.65458
x1 = 0.07889 | 2.73569
x1 = 0.08584 | 2.81657
x1 = 0.09268 | 2.89729

CC[N+](=O)[O-] [nitroethane] + C1CCCCC1
298.15 K
Conditions | relative permittivity at zero frequency
x1 = 0.003987 | 2.0631
x1 = 0.008153 | 2.11122
x1 = 0.01622 | 2.20858
x1 = 0.02416 | 2.2932
x1 = 0.03312 | 2.3893
x1 = 0.0371 | 2.43784
x1 = 0.04487 | 2.5254
x1 = 0.05252 | 2.6119
x1 = 0.06004 | 2.69759
x1 = 0.06369 | 2.73934

CC(C)[N+](=O)[O-] [2-nitropropane] + C1CCCCC1
298.15 K
Conditions | relative permittivity at zero frequency
x1 = 0.001188 | 2.0322
x1 = 0.003139 | 2.0568
x1 = 0.006442 | 2.09876
x1 = 0.009592 | 2.13855
x1 = 0.01286 | 2.18001
x1 = 0.01918 | 2.26067
x1 = 0.02225 | 2.29974
x1 = 0.0266 | 2.35434
x1 = 0.031 | 2.41041
x1 = 0.03475 | 2.45922
x1 = 0.04093 | 2.54037
x1 = 0.04703 | 2.62139
x1 = 0.05035 | 2.66577
x1 = 0.05259 | 2.69578
x1 = 0.05527 | 2.7322
x1 = 0.05838 | 2.77444
x1 = 0.06441 | 2.857
x1 = 0.07038 | 2.93937
